In patent US9353107B2 (Aurigene Discovery Technologies Limited, priority 2012, dated 2016):
Counter-ions that a name gives are not always drawn.

Target: T1, recombinant human ALK enzyme (ALK WT) (Homo sapiens, UniProt Q9UM73)
T1 construct: purchased Carna Biosciences 08-518
Assay: ALK WT cell free enzymatic assay (TR-FRET)
Format: biochemical
Conditions: 1 μM ATP; for IC50: 10 point dose response; for inhibition at 0.1 µM: compound at 100 nM; for inhibition at 0.1 µM / inhibition at 1 µM: 30 min pre-incubation; for inhibition at 1 µM: compound at 1 μM
Method in brief: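 Read-out is TR-FRET (665 nm/615 nm ratio) using an Eu-labeled anti-phosphotyrosine antibody. Compound is pre-incubated 30 min with recombinant human ALK, then reacted 30 min with 1 μM ATP and 40 nM Poly GT substrate. Values are percent inhibition at 100 nM and 1 μM, plus IC50 from 10-point variable-slope regression.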

T1 sequence (Q9UM73 1058-1620 limits assumed): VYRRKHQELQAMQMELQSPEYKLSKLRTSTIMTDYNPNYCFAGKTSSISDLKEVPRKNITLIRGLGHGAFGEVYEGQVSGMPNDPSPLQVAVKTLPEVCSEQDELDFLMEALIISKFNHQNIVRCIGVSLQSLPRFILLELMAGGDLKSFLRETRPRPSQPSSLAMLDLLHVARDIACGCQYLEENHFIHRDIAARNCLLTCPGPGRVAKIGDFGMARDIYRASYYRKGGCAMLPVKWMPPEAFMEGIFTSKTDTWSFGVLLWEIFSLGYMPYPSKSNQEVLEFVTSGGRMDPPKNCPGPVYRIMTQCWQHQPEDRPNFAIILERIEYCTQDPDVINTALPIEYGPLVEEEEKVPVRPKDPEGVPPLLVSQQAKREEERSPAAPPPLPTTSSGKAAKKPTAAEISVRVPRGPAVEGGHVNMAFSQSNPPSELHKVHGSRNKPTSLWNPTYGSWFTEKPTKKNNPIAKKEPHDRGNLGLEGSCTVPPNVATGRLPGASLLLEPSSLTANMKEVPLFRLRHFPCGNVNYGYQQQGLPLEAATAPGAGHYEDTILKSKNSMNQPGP

IC50 [nM] | inhibition at 0.1 µM [%] | inhibition at 1 µM [%] | Compound
< 50 | 76 | 94 | COc1nc(N2CCN(C[C@H](C)O)CC2)ccc1-c1cnc2[nH]cc(-c3cnn(Cc4cccc(F)c4)c3)c2c1 [Example 144, (S)-1-(4-(5-(3-(1-(3-fluorobenzyl)-1H-pyrazol-4-yl)-1H-pyrrolo[2,3-b]pyridin-5-yl)-6-methoxypyridin-2-yl)piperazin-1-yl)propan-2-ol]
< 50 | 96 | 99 | C[C@H](O)CN1CCCN(c2ccc(-c3cnc4[nH]cc(-c5cnn(Cc6cccc(F)c6)c5)c4c3)cc2)CC1 [Example 164, (S)-1-(4-(4-(3-(1-(3-fluorobenzyl)-1H-pyrazol-4-yl)-1H-pyrrolo[2,3-b]pyridin-5-yl)phenyl)-1,4-diazepan-1-yl)propan-2-ol]
< 50 | 85 | 94 | CS(=O)(=O)N1CCN(c2ccc(-c3cnc4[nH]cc(-c5cnn(Cc6cccc(F)c6)c5)c4c3)cn2)CC1 [Example 158, 3-(1-(3-fluorobenzyl)-1H-pyrazol-4-yl)-5-(6-(4-(methylsulfonyl)piperazin-1-yl)pyridin-3-yl)-1H-pyrrolo[2,3-b]pyridine]
< 50 | 83 | 99 | c1cncc(Cn2cc(-c3c[nH]c4ncc(-c5ccc(N6CCNCC6)cc5)cc34)cn2)c1 [Example 131, 5-(4-(piperazin-1-yl)phenyl)-3-(1-(pyridin-3-ylmethyl)-1H-pyrazol-4-yl)-1H-pyrrolo[2,3-b]pyridine]
< 50 | 93 | 100 | C[C@@H](O)CN1CCN(c2ncc(-c3cnc4[nH]cc(-c5cnn(Cc6cccc(F)c6)c5)c4c3)cc2F)CC1 [Example 180, (R)-1-(4-(3-fluoro-5-(3-(1-(3-fluorobenzyl)-1H-pyrazol-4-yl)-1H-pyrrolo[2,3-b]pyridin-5-yl)pyridin-2-yl)piperazin-1-yl)propan-2-ol]
< 50 | 92 | 100 | N#CCN1CCN(c2ccc(-c3cnc4[nH]cc(-c5cnn(Cc6cccc(F)c6)c5)c4c3)cn2)CC1 [Example 150, 2-(4-(5-(3-(1-(3-fluorobenzyl)-1H-pyrazol-4-yl)-1H-pyrrolo[2,3-b]pyridin-5-yl)pyridin-2-yl)piperazin-1-yl)acetonitrile]
< 50 | 98 | 100 | CN1CCC(c2ccc(-c3cnc4[nH]cc(-c5cnn(Cc6cccc(F)c6)c5)c4c3)cc2F)CC1 [Example 170, 5-(3-fluoro-4-(1-methylpiperidin-4-yl)phenyl)-3-(1-(3-fluorobenzyl)-1H-pyrazol-4-yl)-1H-pyrrolo[2,3-b]pyridine]
< 50 | 88 | 98 | C[C@H](O)CN1CCN(c2cnc(-c3cnc4[nH]cc(-c5cnn(Cc6cccc(F)c6)c5)c4c3)cn2)CC1 [Example 163, (S)-1-(4-(5-(3-(1-(3-fluorobenzyl)-1H-pyrazol-4-yl)-1H-pyrrolo[2,3-b]pyridin-5-yl)pyrazin-2-yl)piperazin-1-yl)propan-2-ol]
< 50 | 86 | 99 | CS(=O)(=O)Nc1cc(-c2cnc3[nH]cc(-c4ccn(Cc5cc(F)cc(F)c5)n4)c3c2)ccc1C1CCNCC1 [Example 176, N-(5-(3-(1-(3,5-difluorobenzyl)-1H-pyrazol-3-yl)-1H-pyrrolo[2,3-b]pyridin-5-yl)-2-(piperidin-4-yl)phenyl)methanesulfonamide]
< 50 | 95 | 97 | OCCN1CCN(c2ccc(-c3cnc4[nH]cc(-c5cnn(Cc6cccc(F)c6)c5)c4c3)cc2)CC1 [Example 126, 2-(4-(4-(3-(1-(3-fluorobenzyl)-1H-pyrazol-4-yl)-1H-pyrrolo[2,3-b]pyridin-5-yl)phenyl)piperazin-1-yl)ethanol]
< 50 | 86 | 97 | CS(=O)(=O)N1CCN(c2ccc(-c3cnc4[nH]cc(-c5cnn(Cc6cccc(F)c6)c5)c4c3)cc2)CC1 [Example 125, 3-(1-(3-fluorobenzyl)-1H-pyrazol-4-yl)-5-(4-(4-(methylsulfonyl)piperazin-1-yl)phenyl)-1H-pyrrolo[2,3-b]pyridine]

Second part, the compound before the results:

Compound | IC50 [nM] | inhibition at 0.1 µM [%] | inhibition at 1 µM [%]
COc1cc(N2CCNCC2)ccc1-c1cnc2[nH]cc(-c3c(C)nn(Cc4cccc(F)c4)c3C)c2c1 [Example 61, 3-(1-(3-fluorobenzyl)-3,5-dimethyl-1H-pyrazol-4-yl)-5-(2-methoxy-4-(piperazin-1-yl)phenyl)-1H-pyrrolo[2,3-b]pyridine hydrochloride] | < 50 | 73 | 96
C[C@H](O)CN1CCC(c2ccc(-c3cnc4[nH]cc(-c5cnn(Cc6cccc(F)c6)c5)c4c3)cn2)CC1 [Example 102A, (S)-1-(4-(5-(3-(1-(3-fluorobenzyl)-1H-pyrazol-4-yl)-1H-pyrrolo[2,3-b]pyridin-5-yl)pyridin-2-yl)piperidin-1-yl)propan-2-ol] | < 50 | 91 | 94
Cc1nn(Cc2cc(F)ccc2F)c(C)c1-c1c[nH]c2ncc(-c3ccc(N4CCNCC4)cc3)cc12 [Example 42, 3-(1-(2,5-difluorobenzyl)-3,5-dimethyl-1H-pyrazol-4-yl)-5-(4-(piperazin-1-yl)phenyl)-1H-pyrrolo[2,3-b]pyridine hydrochloride] | < 50 | 92 | 100
Fc1cccc(Cn2cc(-c3c[nH]c4ncc(-c5ccc(C6CCNCC6)cc5)cc34)cn2)c1 [Example 82, 3-(1-(3-fluorobenzyl)-1H-pyrazol-4-yl)-5-(4-(piperidin-4-yl)phenyl)-1H-pyrrolo[2,3-b]pyridine] | < 50 | 99 | 100
COc1ccc(-c2cc3c(-c4c(C)nn(Cc5cc(F)cc(F)c5)c4C)c[nH]c3nc2C2CC2)cc1NS(C)(=O)=O [Example 27, N-(5-(6-cyclopropyl-3-(1-(3,5-difluorobenzyl)-3,5-dimethyl-1H-pyrazol-4-yl)-1H-pyrrolo[2,3-b]pyridin-5-yl)-2-methoxyphenyl)methanesulfonamide] |  | 9 | 8
CS(=O)(=O)Nc1cccc(-c2cnc3[nH]cc(-c4cnn(Cc5cccc([N+](=O)[O-])c5)c4)c3c2)c1 [Example 7, N-(3-(3-(1-(3-nitrobenzyl)-1H-pyrazol-4-yl)-1H-pyrrolo[2,3-b]pyridin-5-yl)phenyl)methane sulfonamide] |  | 20 | 53
NC(=O)N1CCN(c2ccc(-c3cnc4[nH]cc(-c5cnn(Cc6cccc(F)c6)c5)c4c3)cc2)CC1 [Example 108, 4-(4-(3-(1-(3-fluorobenzyl)-1H-pyrazol-4-yl)-1H-pyrrolo[2,3-b]pyridin-5-yl)phenyl)piperazine-1-carboxamide] | < 50 | 97 | 100
CNS(=O)(=O)c1cc(-c2cnc3[nH]cc(-c4c(C)nn(Cc5cc(F)cc(F)c5)c4C)c3c2)ccc1OC [Example 21, (3-(1-(3,5-difluorobenzyl)-3,5-dimethyl-1H-pyrazol-4-yl)-1H-pyrrolo[2,3-b]pyridin-5-yl)-2-methoxy-N-methylbenzenesulfonamide] | < 50 | 82 | 96
CS(=O)(=O)Nc1cc(-c2cnc3[nH]cc(-c4cnn(Cc5cccc(F)c5)c4)c3c2)ccc1N1CCNCC1 [Example 106, N-(5-(3-(1-(3-fluorobenzyl)-1H-pyrazol-4-yl)-1H-pyrrolo[2,3-b]pyridin-5-yl)-2-(piperazin-1-yl)phenyl)methanesulfonamide hydrochloride] | < 50 | 97 | 100
Cc1nn(Cc2cccc(F)c2)c(C)c1-c1c[nH]c2ncc(-c3cccc(NC4CCNCC4)c3)cc12 [Example 94, N-(3-(3-(1-(3-fluorobenzyl)-3,5-dimethyl-1H-pyrazol-4-yl)-1H-pyrrolo[2,3-b]pyridin-5-yl)phenyl)piperidin-4-amine] | < 50 | 98 | 100
c1ccc(CCn2cc(-c3c[nH]c4ncc(-c5cccc(OC6CCNCC6)c5)cc34)cn2)cc1 [Example 97, 3-(1-phenethyl-1H-pyrazol-4-yl)-5-(3-(piperidin-4-yloxy)phenyl)-1H-pyrrolo[2,3-b]pyridine] | < 50 | 76 | 98
C[C@H](O)CN1CCN(c2ccc(-c3cnc4[nH]cc(-c5cnn(Cc6cccc(F)c6)c5)c4c3)cc2)CC1 [Example 104, (S)-1-(4-(4-(3-(1-(3-fluorobenzyl)-1H-pyrazol-4-yl)-1H-pyrrolo[2,3-b]pyridin-5-yl)phenyl)piperazin-1-yl)propan-2-ol] | < 50 | 98 | 100
COc1ccc(-c2cnc3[nH]cc(-c4cnn(CCc5ccccc5F)c4)c3c2)cc1NS(C)(=O)=O [Example 74, N-(5-(3-(1-(2-fluorophenethyl)-1H-pyrazol-4-yl)-1H-pyrrolo[2,3-b]pyridin-5-yl)-2-methoxyphenyl)methanesulfonamide] | 50 to 250 | 51 | 92
Cc1nn(Cc2cccc(Cl)c2)c(C)c1-c1c[nH]c2ncc(-c3ccc(N4CCNCC4)cc3)cc12 [Example 47, 3-(1-(3-chlorobenzyl)-3,5-dimethyl-1H-pyrazol-4-yl)-5-(4-(piperazin-1-yl)phenyl)-1H-pyrrolo[2,3-b]pyridine hydrochloride] | < 50 | 90 | 100
